According to article PMC3802547 (Molecular bioSystems, 2011):

Target: LasB (elastase) (Pseudomonas aeruginosa, UniProt P14756)
Assay: BODIPY-FL casein fluorescence protease assay with purified LasB
Type: biochemical

LasB (elastase), sequence (P14756 198-498): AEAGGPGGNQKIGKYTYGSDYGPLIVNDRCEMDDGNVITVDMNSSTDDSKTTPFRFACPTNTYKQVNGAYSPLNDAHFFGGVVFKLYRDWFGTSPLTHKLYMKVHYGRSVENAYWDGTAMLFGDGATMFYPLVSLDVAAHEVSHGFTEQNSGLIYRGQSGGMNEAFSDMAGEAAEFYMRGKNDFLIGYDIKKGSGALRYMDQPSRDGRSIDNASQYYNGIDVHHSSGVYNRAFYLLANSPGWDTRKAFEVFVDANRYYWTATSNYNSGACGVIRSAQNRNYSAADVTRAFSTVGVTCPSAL

CCCCCCC[C@@H]1C[C@H]1CCC(=O)O [compound 4, lyngbyoic acid]
Ki: 5.4 µM
